Like-named read-outs stand apart in the source and are kept apart here.
What was measured:
[1] = test system: HCT-116 human colon carcinoma cells; experiment: MTS cytotoxicity assay (72 h exposure); type: cell-based
Method: Cytoxicity was assessed in HCT-116 human colon carcinoma cells by MTS (3-(4,5-dimethylthiazol-2-yl)-5-(3-carboxymethoxyphenyl)-2-(4-sulphenyl)-2H-tetrazolium, inner salt) assay as reported in T. L. Riss, et. al., "Comparison of MTT, XTT, and a novel tetrazolium compound MTS for in vitro proliferation and chemosensitivity assays.," Mol. Biol. Cell 3 (Suppl.):184a, 1992. Cells were plated at 4,000 cell/well in 96 well microtiter plates and 24 hours later drugs were added and serial diluted. The cells were incubated at 37° for 72 hours at which time the tetrazolium dye, MTS at 333 μg/ml (final concentration), in combination with the electron coupling agent phenazine methosulfate at 25 μM (final concentration) was added. A dehydrogenase enzyme in live cells reduces the MTS to a form that absorbs light at […] which can be quantitated spectrophotometrically. The greater the absorbance the greater the number of live cells. The results are expressed as an IC50, which is the drug concentration required to inhibit cell proliferation (i.e. absorbance at 450 nm) to 50% of that of untreated control cells. The IC50 values for compounds evaluated in this assay are evaluated in Table I.
^1 Cytotoxicity was determined after a 72 h exposure by MTS assay.

M5076 murine sarcoma = experiment: sc M5076 murine sarcoma model, tumor growth delay; type: in vivo; conditions: sc M5076, iv on days 1, 3, 5, 7, and 9 post-implant, at optimal dose
Method: M5076: Taxane derivatives were tested in the M5076 murine sarcoma model using the general materials and methods described by Rose, W. C. in Anticancer Research 6: 557-562, 1986, for subcutaneous M5076 implants, with the following modifications: treatments were administered intravenously on Days 1, 3, 5, 7, and 9 post-tumor implant using eight mice per treatment and untreated control group. Activity was determined based on an increase in lifespan (as described in the preceding reference) of […], and, in particular, on a delay in tumor growth equivalent to at least 1 gross log cell kill (LCK). The latter was calculated as described in Rose, W. C. and Basler, G. A. in In Vivo 4: 391-396, 1990.
(§1) ^a Optimal dose (mg/kg/inj) if active, otherwise, maximal tolerated
(§2) dose (MTD) or highest dose tested.

M109 lung carcinoma = experiment: Mice M109 Model (In-Vivo), ip M109 lung carcinoma, median survival; parameters: species or system mouse; conditions: ip M109, Balb/c×DBA/2 F1 mice, ip injections days 5 and 8 post-implant, at optimal dose
Method: Balb/c×DBA/2 F1 hybrid mice were implanted intraperitoneally, as described by William Rose in Evaluation of Madison 109 Lung Carcinoma as a Model for Screening Antitumor Drugs, Cancer Treatment Reports, 65, No. 3-4 (1981), with 0.5 mL of a 2% (w/v) brei of M109 lung carcinoma.
Mice were treated with compounds under study by receiving intraperitoneal injections of various doses on days 5 and 8 post-implant. Mice were followed daily for survival until approximately 75 days post-tumor implant. One group of mice per experiment remained untreated and served as the control group.
Median survival times of compound-treated (T) mice were compared to the median survival time of the control (C) mice. The ratio of the two values for each compound-treated group of mice was multiplied by 100 and expressed as a percentage (i.e. % T/C) in the following Table II for representative compounds.
as §1, §2

[2] = Homo sapiens, HCT-116, 72 h, read-out: Cytotoxicity Assay IC50 against HCT 116 Human colon tumor cell line
[3] = Homo sapiens, HCT-116, read-out: Cytotoxicity Assay IC50 against HCT 116 Human colon tumor cell line

**Q.** What does the source list for `CC(=O)O[C@H]1C(=O)[C@]2(C)C[C@@H]([S+](C)[O-])[C@H]3OC[C@@]3(OC(C)=O)[C@H]2[C@H](OC(=O)c2ccccc2)[C@]2(O)C[C@H](OC(=O)[C@H](O)[C@@H](NC(=O)c3ccccc3)c3ccccc3)C(C)=C1C2(C)C` (single isomer, unassigned) [Compound 19, 7-deoxy-6β-methyl sulfoxide-paclitaxel]?
**A.** IC50 ([1]; 4320 min, read-out: Cytotoxicity Assay IC50 against HCT 116 Human colon tumor cell line): 50.9 nM; Maximum T-C in LCK (gross log cell kill) (M5076 murine sarcoma): 0.4 LCK; Maximum % T/C (ratio of median survival times treated/control x 100) (M109 lung carcinoma): 169%

**Q.** Which IC50 [1, 2] does the source give for `CC(=O)O[C@H]1C(=O)[C@]2(C)C[C@@H](SC#N)[C@H]3OC[C@@]3(OC(C)=O)[C@H]2[C@H](OC(=O)c2ccccc2)[C@]2(O)C[C@H](OC(=O)[C@H](O)[C@@H](NC(=O)c3ccccc3)c3ccccc3)C(C)=C1C2(C)C` [Compound 17, 7-deoxy-6β-thiocyanato-paclitaxel] here?
**A.** 3.8 nM

**Q.** What about the “Maximum T-C in LCK (gross log cell kill)” value (M5076 murine sarcoma) of the same compound?
**A.** 0.7 LCK

**Q.** And the “Maximum % T/C (ratio of median survival times treated/control x 100)” value (M109 lung carcinoma)?
**A.** 194%

**Q.** Which results are given for `CC(=O)O[C@H]1C(=O)[C@]2(C)C[C@@H](S(C)(=O)=O)[C@H]3OC[C@@]3(OC(C)=O)[C@H]2[C@H](OC(=O)c2ccccc2)[C@]2(O)C[C@H](OC(=O)[C@H](O)[C@@H](NC(=O)c3ccccc3)c3ccccc3)C(C)=C1C2(C)C` [Compound 21, 7-deoxy6β-methyl sulfone-paclitaxel]?
**A.** IC50 [1, 3]: > 109 nM; Maximum T-C in LCK (gross log cell kill) (M5076 murine sarcoma): 0 LCK; Maximum % T/C (ratio of median survival times treated/control x 100) (M109 lung carcinoma): 147%

**Q.** `CC(=O)O[C@H]1C(=O)[C@]2(C)C[C@@H](Sc3ccccc3)[C@H]3OC[C@@]3(OC(C)=O)[C@H]2[C@H](OC(=O)c2ccccc2)[C@]2(O)C[C@H](OC(=O)[C@H](O)[C@@H](NC(=O)c3ccccc3)c3ccccc3)C(C)=C1C2(C)C` [Compound 52, 6b-thiophenyl-7-deoxy-paclitaxel] was tested. Which IC50 [1, 2] did it give?
**A.** 0.58 nM

**Q.** And the “Maximum % T/C (ratio of median survival times treated/control x 100)” value (M109 lung carcinoma)?
**A.** 114%

**Q.** Which results are given for `CC(=O)O[C@H]1C(=O)[C@]2(C)C[C@@H](Sc3cccs3)[C@H]3OC[C@@]3(OC(C)=O)[C@H]2[C@H](OC(=O)c2ccccc2)[C@]2(O)C[C@H](OC(=O)[C@H](O)[C@@H](NC(=O)c3ccccc3)c3ccccc3)C(C)=C1C2(C)C` [Compound 54, 6-b-thio-(2-thienyl)-7-deoxypaclitaxel]?
**A.** IC50 [1, 2]: 1.1 nM; Maximum % T/C (ratio of median survival times treated/control x 100) (M109 lung carcinoma): 148%

**Q.** How did the IC50 [1, 3] turn out when `CC(=O)O[C@H]1C(=O)[C@]2(C)C[C@@H](SCC(=O)O)[C@H]3OC[C@@]3(OC(C)=O)[C@H]2[C@H](OC(=O)c2ccccc2)[C@]2(O)C[C@H](OC(=O)[C@H](O)[C@@H](NC(=O)c3ccccc3)c3ccccc3)C(C)=C1C2(C)C` [Compound 55] was run?
**A.** > 108 nM

**Q.** And the “Maximum % T/C (ratio of median survival times treated/control x 100)” value (M109 lung carcinoma)?
**A.** 107%

Reference: US5977386A, “6-thio-substituted paclitaxels” (Bristol-Myers Squibb Company, priority 1997, dated 1999)
